This passage reports MIC results from patent publication US7361743B2 (Pfizer Inc, priority 2004, dated 2008).

Common to all, as to type: cell-based
One assay relates to Haemophilus influenzae. Nature of the assay: Susceptibility testing, NCCLS microdilution MIC. As to conditions: Haemophilus influenzae.
A further assay concerns Enterococcus faecalis. Put plainly: Susceptibility testing, NCCLS microdilution MIC. As to conditions: Enterococcus faecalis.
Another assay concerns Bacteroides fragilis. Nature of the assay: Susceptibility testing, NCCLS microdilution MIC (anaerobe). As to conditions: Bacteroides fragilis, anaerobe.
[1] abbreviates: ATCC31517, Example A′, strain ATCC 31517, 24 h at 35° C., read-out: MIC against H. influenzae strain ATCC 31517.
The mark [2] stands for this setting: Example A′, strain ATCC29212, 24 h at 35° C., read-out: MIC against Enterococcus faecalis strain ATCC29212.
Where [3] appears, read: ATCC25285, B. fragilis ATCC 25285, NCCLS microdilution, read-out: MIC B. fragilis.
Setting [4] is: Example A, strain ATCC25285, 35° C. for 46-48 h, read-out: MIC against Bacteroides fragilis strain ATCC25285.
Where [5] appears, read: ATCC29212, E. faecalis ATCC 29212, NCCLS microdilution, read-out: MIC E. faecalis.
Where [6] appears, read: Example A, strain ATCC29212, 16-20 h at 35° C., read-out: MIC against Enterococcus faecalis strain ATCC29212.
Setting [7] is: ATCC31517, Example A, strain ATCC 31517, 16-20 h at 35° C., read-out: MIC against H. influenzae strain ATCC 31517.
Where [8] appears, read: ATCC31517, H. influenzae ATCC 31517, NCCLS microdilution, read-out: MIC H. influenzae.

Converted amounts (≈) assume the structure as drawn. Read-outs that look alike come from different tables or passages of the source. Where only a bound is given, the exact number is not on record here.

With `CS[C@H]1O[C@H]([C@H](NC(=O)[C@@H]2C[C@@H](CC=C(F)F)CN2)C(C)C)[C@H](O)[C@H](O)[C@H]1O` [Example 1, 4-(3,3-difluoroprop-2-ene)-pyrrolidine-2-carboxylic acid [2-methyl-1-(3,4,5-trihydroxy-6-methylsulfanyl-tetrahydro-pyran-2-yl)-propyl]-amide], the MIC in the assay with Haemophilus influenzae (setting [1]) was at least 0.5 µg/mL.

Take `CS[C@H]1O[C@H]([C@H](NC(=O)[C@@H]2C[C@H](SCCC(F)(F)F)CN2)[C@@H](C)O)[C@H](O)[C@H](O)[C@H]1O` [Example 11, 4-(3,3,3-Trifluoro-propylsulfanyl)-pyrrolidine-2-carboxylic acid [2-hydroxy-1-(3,4,5-trihydroxy-6-methylsulfanyl-tetrahydro-pyran-2-yl)-propyl]-amide]: the values for the MIC in the assay with Enterococcus faecalis (setting [2]) and in the assay on Haemophilus influenzae (setting [1]) were at most 0.125 µg/mL and at least 0.5 µg/mL, respectively.

As for `CS[C@H]1O[C@H]([C@H](NC(=O)[C@@H]2C[C@H](Sc3ccc(F)cc3)CN2)[C@@H](C)O)[C@H](O)[C@H](O)[C@H]1O` (stereo in doubt) [Example 10, 4-(4-Fluoro-phenylsulfanyl)-pyrrolidine-2-carboxylic acid [2-hydroxy-1-(3,4,5-trihydroxy-6-methylsulfanyl-tetrahydro-pyran-2-yl)-propyl]-amide], the MIC in the assay with Enterococcus faecalis (setting [2]) was at most 0.125 µg/mL; with Haemophilus influenzae (setting [1]), at least 0.5 µg/mL.

As for `CCCCCC1CCN[C@H](C(=O)N[C@@H]([C@H]2O[C@H](SC)[C@H](O)[C@@H](O)[C@H]2O)[C@H](C)Cl)CC1` (some centres unmarked) [Example 145, 5-Pentyl-azepane-2-carboxylic acid [2-chloro-1-(3,4,5-trihydroxy-6-methylsulfanyl-tetrahydro-pyran-2-yl)-propyl]-amide], the MIC in the assay on Bacteroides fragilis (setting [3]) is 0.5 µg/mL (≈ 1.07 µM); with Bacteroides fragilis (setting [4]) it was at most 0.5 µg/mL; in the assay on Enterococcus faecalis (setting [5]), 0.125 µg/mL (≈ 0.268 µM); with Enterococcus faecalis (setting [6]) it was at most 0.125 µg/mL; with Haemophilus influenzae (setting [7]) it was 0.5 µg/mL (≈ 1.07 µM); in the assay on Haemophilus influenzae (setting [8]), 0.5 µg/mL (≈ 1.07 µM).

Regarding `CCCC1CCN[C@H](C(=O)N[C@@H]([C@H]2O[C@H](SC)[C@H](O)[C@@H](O)[C@H]2O)[C@H](C)Cl)CC1` (some centres unmarked) [Example 47, 5-Propyl-azepane-2-carboxylic acid [2-chloro-1-(3,4,5-trihydroxy-6-methylsulfanyl-tetrahydro-pyran-2-yl)-propyl]-amide], the MIC was 0.125 µg/mL (≈ 0.285 µM) in the assay on Bacteroides fragilis (setting [3]); at most 0.5 µg/mL in the assay with Bacteroides fragilis (setting [4]); 0.125 µg/mL (≈ 0.285 µM) in the assay with Enterococcus faecalis (setting [5]); at most 0.125 µg/mL in the assay with Enterococcus faecalis (setting [6]); 0.5 µg/mL (≈ 1.14 µM) in the assay with Haemophilus influenzae (setting [7]); 0.5 µg/mL (≈ 1.14 µM) in the assay on Haemophilus influenzae (setting [8]). Further, the MIC with Haemophilus influenzae (Example A, strain not stated, 16-20 h at 35° C., read-out: MIC against Haemophilus influenzae) was at least 4 µg/mL.

For the molecule `CCS[C@@H]1CN[C@H](C(=O)N[C@@H]([C@H]2O[C@H](SC)[C@H](O)[C@@H](O)[C@H]2O)[C@H](C)Cl)C1` (stereo in doubt) [Example 8, 4-Ethylsulfanyl-pyrrolidine-2-carboxylic acid [2-chloro-1-(3,4,5-trihydroxy-6-methylsulfanyl-tetrahydro-pyran-2-yl)-propyl]-amide], the MIC in the assay on Enterococcus faecalis (setting [2]) was at most 0.125 µg/mL; with Haemophilus influenzae (setting [1]), at least 0.5 µg/mL.

Turning to `CS[C@H]1OC([C@H](NC(=O)[C@@H]2C[C@H](CC3CCC3)CCN2)[C@H](C)Cl)[C@H](O)[C@H](O)[C@H]1O` (stereo in doubt) [Example 82, 4-Cyclobutylmethyl-piperidine-2-carboxylic acid [2-chloro-1-(3,4,5-trihydroxy-6-methylsulfanyl-tetrahydro-pyran-2-yl)-propyl]-amide], the MIC in the assay with Bacteroides fragilis (setting [3]) was 0.25 µg/mL (≈ 0.554 µM); with Bacteroides fragilis (setting [4]) it was at most 0.5 µg/mL; in the assay with Enterococcus faecalis (setting [5]), 0.125 µg/mL (≈ 0.277 µM); with Enterococcus faecalis (setting [6]), at most 0.125 µg/mL; in the assay on Haemophilus influenzae (setting [8]), 2 µg/mL (≈ 4.43 µM).

In the case of `CS[C@H]1O[C@H]([C@H](NC(=O)[C@@H]2C[C@@H](CCCc3ccncc3)CN2)C(C)C)[C@H](O)[C@H](O)[C@H]1O` (stereo in doubt) [Example 3, 4-(3-Pyridin-4-yl-propyl)-pyrrolidine-2-carboxylic acid [2-methyl-1-(3,4,5-trihydroxy-6-methylsulfanyl-tetrahydro-pyran-2-yl)-propyl]-amide], the values for the MIC with Enterococcus faecalis (setting [2]) and with Haemophilus influenzae (setting [1]) were at most 0.125 µg/mL and at least 0.5 µg/mL, respectively.

Turning to `CCCCS[C@@H]1CN[C@H](C(=O)N[C@@H]([C@H]2O[C@H](SC)[C@H](O)[C@@H](O)[C@H]2O)[C@@H](C)O)C1` (stereo in doubt) [Example 4, 4-Butylsulfanyl-pyrrolidine-2-carboxylic acid [2-hydroxy-1-(3,4,5-trihydroxy-6-methylsulfanyl-tetrahydro-pyran-2-yl)-propyl]-amide], the results for the MIC in the assay with Enterococcus faecalis (setting [2]) and in the assay with Haemophilus influenzae (setting [1]) were at most 0.125 µg/mL and at least 0.5 µg/mL, respectively.

Take `CS[C@H]1OC([C@H](NC(=O)[C@@H]2C[C@H](CCC3CCC3)CCN2)[C@H](C)Cl)[C@H](O)[C@H](O)[C@H]1O` (stereo in doubt) [Example 81, 4-(2-Cyclobutyl-ethyl)-piperidine-2-carboxylic acid [2-chloro-1-(3,4,5-trihydroxy-6-methylsulfanyl-tetrahydro-pyran-2-yl)-propyl]-amide]: the MIC in the assay on Bacteroides fragilis (setting [3]) is 0.125 µg/mL (≈ 0.269 µM); in the assay with Bacteroides fragilis (setting [4]), at most 0.5 µg/mL; with Enterococcus faecalis (setting [5]), 0.03 µg/mL (≈ 0.0645 µM); with Enterococcus faecalis (setting [6]), at most 0.125 µg/mL; in the assay with Haemophilus influenzae (setting [8]) it was 2 µg/mL (≈ 4.3 µM).

In the case of `CCS[C@@H]1CN[C@H](C(=O)N[C@@H]([C@H]2O[C@H](SC)[C@H](O)[C@@H](O)[C@H]2O)[C@@H](C)O)C1` [Example 5, 4-Ethylsulfanyl-pyrrolidine-2-carboxylic acid [2-hydroxy-1-(3,4,5-trihydroxy-6-methylsulfanyl-tetrahydro-pyran-2-yl)-propyl]-amide], the MIC in the assay with Enterococcus faecalis (setting [2]) was at most 0.125 µg/mL; with Haemophilus influenzae (setting [1]) it was at least 0.5 µg/mL.

Consider `CCCCC1CCN[C@H](C(=O)N[C@@H]([C@H]2O[C@H](SC)[C@H](O)[C@@H](O)[C@H]2O)[C@H](C)Cl)CC1` (some centres unmarked) [Example 144, 5-Butyl-azepane-2-carboxylic acid [2-chloro-1-(3,4,5-trihydroxy-6-methylsulfanyl-tetrahydro-pyran-2-yl)-propyl]-amide], for which the MIC in the assay on Bacteroides fragilis (setting [3]) was 0.125 µg/mL (≈ 0.276 µM); in the assay with Bacteroides fragilis (setting [4]), at most 0.5 µg/mL; in the assay on Enterococcus faecalis (setting [5]) it was 0.03 µg/mL (≈ 0.0662 µM); in the assay on Enterococcus faecalis (setting [6]) it was at most 0.125 µg/mL; in the assay with Haemophilus influenzae (setting [7]), 0.5 µg/mL (≈ 1.1 µM); in the assay with Haemophilus influenzae (setting [8]), 0.5 µg/mL (≈ 1.1 µM).

As to `CS[C@H]1O[C@H]([C@H](NC(=O)[C@@H]2C[C@H](SCCC(C)C)CN2)[C@@H](C)O)[C@H](O)[C@H](O)[C@H]1O` (stereo in doubt) [Example 12, 4-(3-Methyl-butylsulfanyl)-pyrrolidine-2-carboxylic acid [2-hydroxy-1-(3,4,5-trihydroxy-6-methylsulfanyl-tetrahydro-pyran-2-yl)-propyl]-amide], in the assay on Haemophilus influenzae (setting [1]), the MIC is at least 0.5 µg/mL.

Consider `CS[C@H]1O[C@H]([C@H](NC(=O)[C@@H]2C[C@@H](C/C=C/c3ccncc3)CN2)C(C)C)[C@H](O)[C@H](O)[C@H]1O` (stereo in doubt) [Example 2, 4-(3-Pyridin-4-yl-allyl)-pyrrolidine-2-carboxylic acid [2-methyl-1-(3,4,5-trihydroxy-6-methylsulfanyl-tetrahydro-pyran-2-yl)-propyl]-amide], for which, in the assay with Haemophilus influenzae (setting [1]), the MIC was at least 0.5 µg/mL.
